The record followed here is patent US20200071675A1, “METHOD FOR PRODUCING ENDOTHELIAL CELLS” (TAKARA BIO INC., priority 2016, published 2020).

Read-outs that look alike come from different tables or passages of the source. Bounds are passed on as bounds.

The test system of assay [1] is KDR-positive vascular endothelial progenitor cells from human iPS cells (ChiPSC12 strain). Nature of the assay: Cell numbers during differentiation of iPS cell-derived vascular endothelial progenitor cells cultured with a TGF-β inhibitor (Days 8 to 11). It is filed as cell-based. Particulars: for Cell Numbers (Day 19) / Cell Numbers (Day 30): cell numbers at Day 8 defined as 1.

Assay [2] has the same test system. Nature of the assay: CD31-positive cell ratio (endothelial cell marker) by flow cytometry. It is filed as cell-based. The protocol: Human iPS cells ([…]) were cultured in DEF-CS medium (Cellartis) in accordance with the instructions attached to the medium. In order to efficiently induce differentiation of mesodermal cells, iPS cells were coated with Matrigel (Matrigel Sandwich method) in accordance with the following procedures. […] Here, SB431542, another TGF-β inhibitor, was used as a negative control. The cells were collected at Day 11, and the cell numbers were counted.

For assay [3] the test system is unchanged. The protocol:
Human iPS cells (ChiPSC12 strain) were cultured in DEF-CS medium in accordance with the instructions attached to the medium.
TrypLE(trademark) Select was added to iPS cells that had been subcultured, and the cells were incubated at 37° C. for 3 to 7 minutes. The detached cells were collected as a single cell by pipetting, and the cell numbers were counted. […] Thereafter, the medium was exchanged with DEF-CS medium added with Matrigel diluted to 1:60, and the cells were cultured for additional 16 to 24 hours, thereby coating an upper layer of the cells with Matrigel.
The Matrigel-coated iPS cells obtained were differentiated into mesodermal cells in accordance with the following procedures. First, a medium of the Matrigel-coated iPS cells was exchanged with RPMI 1640 medium added with 100 ng/mL activin A, 2 mM GlutaMAX(trademark), and B27 supplement (without containing insulin) (this time point being defined as the beginning of the induction of differentiation=Day 0), and the cells were cultured for 24 hours (Day 1). Next, the medium was exchanged with RPMI 1640 medium added with 10 ng/mL hBMP4, 10 ng/mL hbFGF, 2 mM GlutaMAX, and B27 supplement, and the cells were cultured for 3 days (Day 4). Thereafter, the medium was exchanged with RPMI 1640 medium added with 100 ng/mL VEGF, 2 mM GlutaMAX, and B27 supplement, and the cells were cultured overnight (Day 5).
KDR-positive cells were separated from the cultured cells at Day 5 by using the magnetic-activated cell sorting, thereby isolating vascular endothelial progenitor cells. In order to separate the KDR-positive cells, an anti-KDR antibody to which a PE fluorescent label was bound was used as a primary antibody for labeling cells, and cells labeled with the primary antibody were collected with magnetic beads embedding anti-PE antibodies. […] Further, the medium at Day 6 was exchanged with RPMI 1640 medium added with B27 supplement, 50 units/mL penicillin, 50 μg/mL streptomycin, 2 mM GlutaMAX, and 100 ng/mL VEGF, and the cells were cultured for 2 days (Day 8).
Here, CD31 is a marker of endothelial cells, and CD34 is a marker of hematopoietic stems cells or endothelial progenitor cells. In addition, CD34 is also expressed in juvenile endothelial cells.

Assay [4] concerns vascular endothelial cells induced from human iPS cells (ChiPSC12 strain). Put plainly: Freezing and thawing of vascular endothelial cells induced with RepSox. Particulars: cells induced with 20 μM RepSox, collected Days 18 to 22, stored in liquid nitrogen for 3 days, thawed at 37° C.
Description: The collected cells were washed, and suspended in Stem Cell Banker (TAKARA BIO INC.) so as to have a cell concentration of 3×10^6/mL, and 1 mL of each of the suspension was dispensed to vials. The vials were placed in a frozen-treated vessel (BICELL, Nihon Freezer Co., Ltd.), and the cells were subjected to slow freezing in a freezing storage chamber held at a temperature of −80° C. Thereafter, each vial was transferred to a liquid nitrogen, and stored for 3 days.
The frozen cells were warmed for 2 minutes and 30 seconds with a water bath warmed to 37° C., to thaw the cells. […] An entire amount of the remaining cells was added to a tube to which 8 mL of a medium for proliferating endothelial cells had been dispensed in advance. Thereafter, a vial was rinsed with 1 mL of a medium for proliferating endothelial cells, and a rinsed medium was added to the tube. The tube was centrifuged at 200×g for 5 minutes, and the supernatant was then discarded. The cells were suspended in a fresh medium for culturing endothelial cells, and the cells were seeded at a density of 2×10^4 cells/cm^2 to a culture vessel. […]
The cells were collected on a seventh day after thawing the cells, and the cell numbers were counted. At the same time, the CD31-positive cell ratio, an endothelial cell marker, was measured with a flow cytometry.

Take `Cc1cccc(-c2[nH]ncc2-c2ccc3ncccc3n2)n1` [RepSox]: the “Cell Numbers (Day 19)” value in assay [1] (3 μM inhibitor Days 8 to 11) was 3.1; in assay [1] (10 μM inhibitor Days 8 to 11), 3.5; in assay [1] (20 μM inhibitor Days 8 to 11), 3.5. Besides, the “Cell Numbers (Day 30)” value is 2.5 in assay [1] (3 μM inhibitor Days 8 to 11), 9.1 in assay [1] (10 μM inhibitor Days 8 to 11) and 3.1 in assay [1] (20 μM inhibitor Days 8 to 11). The “cell proliferation rates at Day 30” value in assay [1] (text summary: 'in both the media containing 3 μM RepSox', relative to Day 8 = 1) is recorded as ≥ 2.5. For the same compound, the “CD31-Positive (Day 19)” value in assay [2] (3 μM inhibitor Days 8 to 11) came to 98.9%; in assay [2] (10 μM inhibitor Days 8 to 11) it was 99.7%; in assay [2] (20 μM inhibitor Days 8 to 11), 99.8%. Further, the “CD31-Positive (Day 30)” value in assay [2] (3 μM inhibitor Days 8 to 11) was 87.0%; in assay [2] (10 μM inhibitor Days 8 to 11) it was 99.0%; in assay [2] (20 μM inhibitor Days 8 to 11), 99.1%. Moreover, the “CD31-positive ratios (Day 30)” value in assay [2] (text summary: 'in both the media containing 3 μM RepSox') is given as ≥ 87%. Also, the “CD31+/CD34+ (Day 13)” value is 96.9% in assay [3] (3 μM RepSox Day 8 to 11), 96.1% in assay [3] (10 μM RepSox Day 8 to 11) and 95.8% in assay [3] (20 μM RepSox Day 8 to 11). The “CD31+/CD34+ (Day 18)” value came to 93.3% in assay [3] (3 μM RepSox Day 8 to 11), 94.4% in assay [3] (10 μM RepSox Day 8 to 11) and 96.1% in assay [3] (20 μM RepSox Day 8 to 11). In assay [3] (regardless of the concentrations of RepSox (3, 10, 20 μM)), the “CD31+/CD34+ cells at Day 13” value is given as ≥ 95%. The “cell viability after thawing” value in assay [4] is recorded as 87%.
Turning to `NC(=O)c1ccc(-c2nc(-c3ccc4c(c3)OCO4)c(-c3ccccn3)[nH]2)cc1` [SB431542], in assay [1] (10 μM inhibitor Days 8 to 11), the “Cell Numbers (Day 19)” value was 1.3 and the “Cell Numbers (Day 30)” value was 0.9. Besides, in assay [1] (20 μM inhibitor Days 8 to 11), the “Cell Numbers (Day 19)” value is recorded as 2.3 and the “Cell Numbers (Day 30)” value came to 5.1. In assay [2] (10 μM inhibitor Days 8 to 11), the “CD31-Positive (Day 19)” value was 97.7% and the “CD31-Positive (Day 30)” value amounted to 89.4%. Moreover, in assay [2] (20 μM inhibitor Days 8 to 11), the “CD31-Positive (Day 19)” value is 98.7% and the “CD31-Positive (Day 30)” value came out at 33.0%.
